The record followed here is patent publication US20030180957A1, “Target and method” (Sense Proteomic Limited, priority 2001, published 2003).

This test has as its target Neutravidin (Gallus gallus, UniProt P02701). Kind of test: surface capture of BSA-biotin on Neutravidin coated MALDI target, competition by free biotin. The format is binding. The conditions noted are these: MALDI target coated with PLL-PEG-biotin and Neutravidin; MALDI mass spectrum readout. An excerpt: The specificity of the surface capture was confirmed with the following experiments. BSA-Biotin was deposited on the MALDI target without Neutravidin or without the Biotin layer. BSA-Biotin was not detected in either case. Furthermore, binding of BSA-biotin to the Neutravidin coated surface is inhibited by the presence of free biotin. The database search results for BSA-biotin are presented in the appendix A.
MALDI targets are cleaned before use with acetone, acetonitrile, double distilled water and dried under nitrogen. Each position on the MALDI target is coated with 500 nanoliter 1%PLL-PEG-2%Biotin solution dissolved in desalting buffer. The target is then placed in a humid chamber for one hour at room temperature. Unbound PLL-PEG is rinsed with […] washing buffer followed by two washes with […] washing buffer. The target surface is dried under nitrogen. The PLL-PEG coating is then overlaid with 500 nanoliter of 0.5 mg/ml Neutravidin at each position of the array, incubated for one hour at RT in a humid chamber, rinsed with washing buffer, washed twice with […] washing buffer and dried under nitrogen. THE MALDI target is now ready to be used as a highly specific affinity capture surface. […]

Neutravidin, sequence (P02701 25-152): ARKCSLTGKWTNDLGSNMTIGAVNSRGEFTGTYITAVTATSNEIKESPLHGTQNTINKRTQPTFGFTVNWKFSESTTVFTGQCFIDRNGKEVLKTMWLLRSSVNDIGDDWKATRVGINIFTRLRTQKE

Regarding `O=C(O)CCCC[C@@H]1SC[C@@H]2NC(=O)N[C@@H]21` [biotin], the “binding of BSA-biotin to the Neutravidin coated surface in the presence of free biotin” value was “inhibited”.
